For the test, the target named is T1, receptor interacting protein kinase 1 (GST-hRIPK1 (8-327)) (Homo sapiens, UniProt Q13546).
T1 construct: GST-hRIPK1 (8-327) enzyme was generated by Proteros GmbH by Baculovirus expression system
T1 sequence (Q13546 8-327): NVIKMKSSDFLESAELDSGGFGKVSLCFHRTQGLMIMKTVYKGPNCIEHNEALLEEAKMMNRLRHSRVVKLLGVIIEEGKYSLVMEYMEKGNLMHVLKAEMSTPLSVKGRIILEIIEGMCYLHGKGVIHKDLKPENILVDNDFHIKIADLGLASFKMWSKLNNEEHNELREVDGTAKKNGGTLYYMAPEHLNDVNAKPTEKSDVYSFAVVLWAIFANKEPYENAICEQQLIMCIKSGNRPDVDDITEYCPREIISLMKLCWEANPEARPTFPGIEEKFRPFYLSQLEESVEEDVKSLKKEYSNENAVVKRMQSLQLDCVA
In words: Fluorescent Polarization Binding (FP Binding) assay. Conditions: 10 nM GST-hRIPK1 (8-327), 5 nM fluorescent-labeled ligand, 30 min at RT. As for the experimental part: Fluorescent Polarization Binding (FP Binding) assay (Berger S. B. et al. (2015) Cell Death Discovery, 1: 15009; Maki J. L. et al. (2012) Anal Biochem., 427(2): 164-174) was performed in polystyrene low volume 384-well black plate, at Room Temperature (RT) in a final volume of 10.1 μl/well using 10 nM of GST-hRIPK1 (8-327) enzyme and 5 nM of fluorescent-labeled ligand (14-(2-{[3-({2-{[4-(cyanomethyl)phenyl]amino}-6-[(5-cyclopropyl-1H-pyrazol-3-yl)amino]-4-pyrimidinyl}amino) propyl]amino}-2-oxoethyl)-16,16,18,18-tetramethyl-6,7,7a,8a,9,10,16,18-octahydrobenzo[2″3″]indolizino[8″, 0.7″:5′,6′]pyrano[3′,2′:3,4]pyrido[1,2-a]indol-5-ium-2-sulfonate.
Test compounds were serially diluted in DMSO at 100 fold final concentrations in the assay (1% DMSO final). In each well of a 384-well Plate were dispensed 0.1 μL of compound solution (or DMSO for controls) followed by 5 μL of GST-hRIPK1 (8-327) at twice the final concentrations in assay-buffer (50 mM HEPES pH 7.5, 10 mM NaCl, 50 mM MgCl2, 0.02% CHAPS, 0.5 mM DTT and 0.01% Pluronic F127). For negative control the enzyme addition was replaced by assay buffer only.
After addition of 5 μL of fluorescent-labeled ligand at twice the final concentrations in assay buffer, the plate was incubated at RT for 30 min. At the end, the binding was measured as FP value with the Envision (PerkinElmer) plate reader using filter for an excitation λ=531 nm FP and an emission λ=595 nm FP (S & P-pol).
Test compound inhibition was expressed as percent inhibition of internal assay controls. For concentration response curves, normalized data is fit and IC50 determined using XL-fit (IDBS) for Excel. IC50 were averaged to determine a mean value, for a minimum of two independent experiments.
Receptor interacting protein kinase 1 activity of exemplary compounds was determined according to the above general procedures.
Receptor interacting protein kinase 1 activity of certain compounds was determined according to the above general procedures.

Where “and” joins values, the source holds several entries; their conditions need not be identical. Equal entries are not always repeated. Where only a bound is given, the exact number is not on record here.

A word on the IC50: it is the midpoint of a concentration-inhibition curve.

With `CC(C)(C(=O)N1OCC[C@H]1c1ccc(F)cc1)N1CCC1` [Compound 156, 2-(azetidin-1-yl)-1-[(3S)-3-(4-fluorophenyl)-1,2-oxazolidin-2-yl]-2-methylpropan-1-one], the IC50 is 1000 to 10000 nM. As to `CC1(C(=O)N2OCC[C@H]2c2ccc(F)cc2)CC(F)(F)C1` [Compound 155, (3S)-2-(3,3-difluoro-1-methylcyclobutane-carbonyl)-3-(4-fluorophenyl)-1,2-oxazolidine], the half-inhibitory concentration (IC50) is under 1000 nM.

`CC(C)(C)C(=O)N1OCC[C@H]1c1ccn2nccc2c1` [Compound 132, 2,2-dimethyl-1-[(3S)-3-{pyrazolo[1,5-a]pyridin-5-yl}-1,2-oxazolidin-2-yl]propan-1-one] displayed a half-inhibitory concentration (IC50) of under 1000 nM. Consider `CC(C)(C)C(=O)N1OCC[C@H]1c1cc(F)cc(F)c1` (single isomer, unassigned) [Compound 103], for which the IC50 is under 1000 nM. For `CC(C)(C)C(=O)N1OCCC1c1cccnc1` (stereo not shown) [Compound 58, 2,2-Dimethyl-1-[3-(pyridin-3-yl)-1,2-oxazolidin-2-yl]propan-1-one] the value was under 1000 nM. For `CC(C)(C(=O)N1OCC[C@H]1c1ccc(C(F)F)c(C#N)c1)C(F)F` [Compound 227, 5-[(3S)-2-(3,3-difluoro-2,2-dimethylpropanoyl)-1,2-oxazolidin-3-yl]-2-(difluoromethyl)benzonitrile] the value was under 1000 nM. To `Cc1ncc([C@@H]2CCON2C(=O)C(C)(C)C(F)F)cc1F` [Compound 195, 3,3-difluoro-1-[(3S)-3-(5-fluoro-6-methylpyridin-3-yl)-1,2-oxazolidin-2-yl]-2*2-dimethylpropan-1-one] belongs < 1000 nM and 10 nM; to `CC(C)(CO)C(=O)N1OCC[C@H]1c1ccc(F)cc1` [Compound 96, 1-[(3S)-3-(4-fluorophenyl)-1,2-oxazolidin-2-yl]-3-hydroxy-2,2-dimethylpropan-1-one], under 1000 nM; to `N#Cc1ccc([C@@H]2CCON2C(=O)C2(C(F)F)CC2)cc1` [Compound 187, 4-[(3S)-2-[1-(difluoromethyl)cyclo-propanecarbonyl]-1,2-oxazolidin-3-yl]benzonitrile], under 1000 nM. Turning to `CC(C(=O)N1OCC[C@H]1c1ccc(F)cc1)C(F)F` (single isomer, unassigned) [Compound 188], the concentration for half-maximal inhibition (IC50) is under 1000 nM. As for `CC(C)(C)C(=O)N1OCCC1c1ccnnc1` (stereo not shown) [Compound 157, 2,2-dimethyl-1-[3-(pyridazin-4-yl)-1,2-oxazolidin-2-yl]propan-1-one], the 50% inhibitory concentration (IC50) lay within 1000 to 10000 nM. With `N#Cc1ccc([C@@H]2CCON2C(=O)C23C4C5C6C4C2C6C53)cc1` (stereo partly drawn) [Compound 238, 4-[(3S)-2-(cubane-1-carbonyl)-1,2-oxazolidin-3-yl]benzonitrile], the IC50 was under 1000 nM.

On to `CC(C)(C)C(=O)N1OCC[C@H]1c1cc(C#N)ccc1F` [Compound 150, 3-[(3S)-2-(2,2-dimethylpropanoyl)-1,2-oxazolidin-3-yl]-4-fluorobenzonitrile], for which the IC50 was under 1000 nM. For `COc1cc([C@@H]2CCON2C(=O)C(C)(C)C)ccn1` [Compound 144, 1-[(3S)-3-(2-methoxypyridin-4-yl)-1,2-oxazolidin-2-yl]-2,2-dimethylpropan-1-one] the value was under 1000 nM.

On to `CC1(C(=O)N2OCC[C@H]2c2ccc(F)cc2)CCCOC1` (single isomer, unassigned) [Compound 36], for which the IC50 was under 1000 nM.

Compound `C[C@](O)(C(=O)N1OCC[C@H]1c1ccc(F)nc1)C(F)(F)F` [Compound 166, (2S)-3,3,3-trifluoro-1-[(3S)-3-(6-fluoropyridin-3-yl)-1,2-oxazolidin-2-yl]-2-hydroxy-2-methylpropan-1-one] came in with a half-inhibitory concentration (IC50) of 1000 to 10000 nM. Turning to `CC(C(=O)N1OCC[C@H]1c1ccc(C#N)cc1)C(F)(F)F` (single isomer, unassigned) [Compound 180], the IC50 was under 1000 nM.

With `CC(C)(C(=O)N1OCC[C@H]1c1ccccc1)C(F)(F)F` [Compound 55, 3,3,3-Trifluoro-2,2-dimethyl-1-[(3S)-3-phenyl-1,2-oxazolidin-2-yl]propan-1-one], the IC50 is under 1000 nM. In the case of `CC(C)(C)C(=O)N1OCC[C@H]1c1cc(F)cc(C#N)c1` (single isomer, unassigned) [Compound 109], the 50% inhibitory concentration (IC50) was < 1000 nM and 7 nM.

As to `O=C(N1OCC[C@H]1c1ccc(F)nc1)C1(C(F)F)CC1` [Compound 170, 5-[(3S)-2-[1-(difluoromethyl)cyclo-propanecarbonyl]-1,2-oxazolidin-3-yl]-2-fluoropyridine], the 50% inhibitory concentration (IC50) was under 1000 nM. For `N#Cc1ccc([C@@H]2CCON2C(=O)C2(C(F)F)CCC2)cc1` [Compound 229, 4-[(3S)-2-[1-(difluoromethyl)cyclo-butanecarbonyl]-1,2-oxazolidin-3-yl]benzonitrile], the half-maximal inhibitory concentration (IC50) was under 1000 nM. Compound `CC(C)S(=O)(=O)N1OCC[C@H]1c1cncc(C#N)c1` [Compound 225, 5-[(3S)-2-(propane-2-sulfonyl)-1,2-oxazolidin-3-yl]pyridine-3-carbonitrile] had a half-inhibitory concentration (IC50) of 1000 to 10000 nM. On to `CC(C)(C)C(=O)N1OCC[C@H]1c1ccc(F)c(C#N)c1` [Compound 153, 5-[(3S)-2-(2,2-dimethylpropanoyl)-1,2-oxazolidin-3-yl]-2-fluorobenzonitrile], for which the IC50 was under 1000 nM.

`CC(C(=O)N1OCC[C@H]1c1ccc(F)nc1)C1CC1` (single isomer, unassigned) [Compound 117] yielded an IC50 of under 1000 nM.

As for `CC(C)(C)C(=O)N1OCC[C@H]1c1cccc(C#N)c1` [Compound 147, 3-[(3S)-2-(2,2-dimethylpropanoyl)-1,2-oxazolidin-3-yl]benzonitrile], the IC50 was under 1000 nM. To `O=C(c1cnn2ccccc12)N1OCC[C@H]1c1ccccc1` [Compound 21, (3S)-3-phenyl-2-{pyrazolo[1,5-a]pyridine-3-carbonyl}-1,2-oxazolidine] belongs 1000 to 10000 nM; to `CC1(C(=O)N2OCC[C@H]2c2ccc(F)cc2)COC1` [Compound 33, (3S)-3-(4-Fluorophenyl)-2-(3-methyloxetane-3-carbonyl)-1,2-oxazolidine], under 1000 nM. `[2H]C1([2H])C[C@@H](c2ccc(C#N)cc2)N(C(=O)C(C)(C)C)O1` (single isomer, unassigned) [Compound 98] gave a 50% inhibitory concentration (IC50) of under 1000 nM. `CC(C)(C)C(=O)N1OCC[C@H]1c1ccc(C(F)(F)F)cn1` [Compound 122, 2,2-dimethyl-(3S)-3-[5-(trifluoromethyl)pyridin-2-yl-1,2-oxazolidin-2-yl]propan-1-one] yielded an IC50 of under 1000 nM. To `[2H]C([2H])([2H])C(C(=O)N1OCC[C@H]1c1ccc(F)cc1)(C([2H])([2H])[2H])C([2H])([2H])[2H]` [Compound 173, 1-[(3S)-3-(4-fluorophenyl)-1,2-oxazolidin-2-yl]-2,2-bis(^2H3)methyl(^2H3) propan-1-one] belongs under 1000 nM.

Turning to `CC1(C(=O)N2OCC[C@H]2c2ccc(F)cc2)CCCOC1` (single isomer, unassigned) [Compound 35], the IC50 is under 1000 nM.

For the compound `O=C(C1CCO1)N1OCC[C@H]1c1ccccc1` (single isomer, unassigned) [Compound 52], the concentration for half-maximal inhibition (IC50) was over 10000 nM. For `CC(C)(C)OC(=O)N1OCCC1c1ccc(Cl)cc1` (stereo not shown) [Compound 49, tert-Butyl 3-(4-chlorophenyl)-1,2-oxazolidine-2-carboxylate] the value was under 1000 nM; for `CC(C)(C)C(=O)N1OCC[C@@H]1c1cc(F)cc(F)c1` (single isomer, unassigned) [Compound 102], under 1000 nM; for `CC(C)(C)C(=O)N1OCC[C@H]1c1cn2ccccc2n1` [Compound 111, 1-(3S)-3-{imidazo[1,2-A]pyridin-2-yl}-1,2-oxazolidin-2-yl-2,2-dimethylpropan-1-one], 1000 to 10000 nM. Compound `CC(C(=O)N1OCC[C@H]1c1ccc(C#N)cc1)C(F)(F)F` (single isomer, unassigned) [Compound 179] displayed a 50% inhibitory concentration (IC50) of under 1000 nM.

For `CCC1(C(=O)N2OCC[C@H]2c2ccc(F)cc2)COC1` [Compound 38, (3S)-2-(3-Ethyloxetane-3-carbonyl)-3-(4-fluorophenyl)-1,2-oxazolidine], the IC50 is under 1000 nM.
